Test results from patent US20220194959A1, “CRYSTAL FORM OF EGFR INHIBITOR AND PREPARATION METHOD THEREOF” (MEDSHINE DISCOVERY INC., priority 2019, published 2022).
Each block holds one compound with its values, some of them ahead of it.

Key:
Assay type in all cases: physicochemical
[1] = Hygroscopicity study by dynamic vapor sorption (DVS)
Procedure: 1.4. Dynamic Vapor Sorption, DVS Method
Instrument model: SMS DVS Advantage dynamic vapor sorption apparatus
Test conditions: The sample (10 to 15 mg) is weighed and placed in a DVS sample pan for testing.
The detailed DVS parameters are as follows:
Equilibration: dm/dt=0.01%/min (The shortest time: 10 min, and the longest time: 180 min)
Drying: Dried for 120 min at 0% RH
RH (%) test gradient: 10%
Range of RH (%) test gradient: 0%-90%-0%
The classification of hygroscopicity evaluation is as follows:
10-15 mg of the crystal form A and the crystal form C of the compound of formula (II) were weighed and placed into a DVS sample pan for testing.

[2] = Solubility assay in media with different pHs; conditions: for Solubility (2 hours) / Solubility (24 hours): 37° C.; for Final pH: filtrate of saturated solution; for solubility at 2 h / solubility at 24 h: 37 °C, thermodynamic from solid
Procedure: (§1) 9 parts of 4 mg of the crystal form A of the compound of formula (II) were weighed and added to a 1.5 mL sample bottle, respectively, and then 1 mL of different media (0.1 mol/L HCl, 0.01 mol/L HCl, pH3.8 buffer solution, pH4.5 buffer solution, pH5.5 buffer solution, pH6.0 buffer solution, pH6.8 buffer solution, pH7.4 buffer solution, and water) were added, respectively. Based on the dissolution situation, the raw material compound was continuously added until a saturated solution was formed. The magnetic bar was added to the above suspension, and the suspension was placed on a magnetic stirrer (37° C., protected from light) and stirred. […] The upper layer of the sample was filtered with a filter membrane, and the pH value of the filtrate was determined. The saturated solubility of the compound was determined by HPLC.
as §1, with “C” for “A”

[3] = Stability assay under illumination, high humidity, high temperature and acceleration (related substances and crystal form); parameters: Total impurity: unit not given here; conditions: for Change of crystal form: 10 days
Procedure: The stability of crystal form of the crystal form A and the crystal form C of the compound of formula (II) under the conditions of illumination, high humidity (92.5% RH), high temperature (60° C.) and acceleration (40° C./75% RH) was investigated.
Illumination test chamber, model: SHH-100GD-2, conditions: 5000±500 lux (visible light) and 90 mw/cm^2 (ultraviolet).
Electrothermal blowing dry box, model: GZX-9140MBE, conditions: 60° C.
Constant temperature and humidity chamber, model: LDS-800Y, conditions: 40° C./75% RH.
Constant temperature and humidity chamber, model: SHH-250SD, conditions: 25° C., 92.5% RH.
An appropriate amount of the crystal form A of the compound of formula (II) was weighed and placed in a dry and clean weighing bottle. The sample was spread into a thin layer, and fully exposed to assay conditions (60° C., 92.5% RH, illumination) and acceleration conditions (40° C./75% RH). After 17 days, the compound was taken out and determined for related substances and crystal form. […]

[4] = 0.1 mol/L HCl, pH 1, simulated gastric fluid
[5] = pH 6.8 buffer solution, pH 6.8, aqueous buffer
[6] = pH 7.4 buffer solution, pH 7.4, aqueous buffer

ΔW (weight increase by moisture absorption) ([1]; 25° C. and 80% RH): 3.697% | Classification of hygroscopicity ([1]; 25° C., 80% RH): hygroscopic | Solubility (2 hours) ([2]; 0.01 mol/L HCl): 5666 µg/mL | Solubility (24 hours) ([2]; 0.01 mol/L HCl): 2863 µg/mL | Solubility (2 hours) ([2]; 0.1 mol/L HCl): >10000 µg/mL | Solubility (24 hours) ([2]; 0.1 mol/L HCl): >10000 µg/mL | Solubility (conclusion) ([2]; buffer solutions below pH 6.8 and purified water): high solubility | Final pH ([2]; 0.01 mol/L HCl): 2.863 | Final pH ([2]; pH 3.8 buffer solution): 3.928 | Final pH ([2]; pH 4.5 buffer solution): 4.560 | Final pH ([2]; pH 5.5 buffer solution): 5.528 | Final pH ([2]; pH 6.0 buffer solution): 5.708 | Final pH ([2]; pH 6.8 buffer solution): 6.625 | Final pH ([2]; pH 7.4 buffer solution): 7.142 | Final pH ([2]; water): 5.444 | Evaluation of dissolution property ([2]; merged cell: 0.1 mol/L HCl, 0.01 mol/L HCl, pH 3.8, 4.5, 5.5, 6.0 buffer solutions and water): High solubility | Evaluation of dissolution property ([2]; merged cell: pH 6.8 and pH 7.4 buffer solutions): Low solubility | Solubility (2 hours) ([2]; pH 3.8 buffer solution): 1612 µg/mL | Solubility (24 hours) ([2]; pH 3.8 buffer solution): 1681 µg/mL | Solubility (2 hours) ([2]; pH 4.5 buffer solution): 1167 µg/mL | Solubility (24 hours) ([2]; pH 4.5 buffer solution): 1186 µg/mL | Solubility (2 hours) ([2]; pH 5.5 buffer solution): 916 µg/mL | Solubility (24 hours) ([2]; pH 5.5 buffer solution): 863 µg/mL | Solubility (2 hours) ([2]; pH 6.0 buffer solution): 699 µg/mL | Solubility (24 hours) ([2]; pH 6.0 buffer solution): 328 µg/mL | Solubility (2 hours) ([2]; pH 6.8 buffer solution): 260 µg/mL | Solubility (24 hours) ([2]; pH 6.8 buffer solution): 71 µg/mL | Solubility (2 hours) ([2]; pH 7.4 buffer solution): 81 µg/mL | Solubility (24 hours) ([2]; pH 7.4 buffer solution): 40 µg/mL | Solubility (2 hours) ([2]; water): 720 µg/mL | Solubility (24 hours) ([2]; water): 646 µg/mL | Stability compared with the crystal form D of the maleate of the compound of formula (I) [3]: better | Related substance at relative retention time 0.24 ([3]; 40° - 75% RH - 10 days): 0.03 | Related substance at relative retention time 0.69 ([3]; 40° - 75% RH - 10 days): 0.06 | Related substance at relative retention time 0.88 ([3]; 40° - 75% RH - 10 days): 0.04 | Related substance at relative retention time 0.92 ([3]; 40° - 75% RH - 10 days): 0.02 | Related substance at relative retention time 1.24 ([3]; 40° - 75% RH - 10 days): 0.14 | Related substance at relative retention time 1.30 ([3]; 40° - 75% RH - 10 days): 0.17 | Related substance at relative retention time 1.81 ([3]; 40° - 75% RH - 10 days): 0.03 | Total impurity ([3]; 40° - 75% RH - 10 days): 0.53 | Related substance at relative retention time 0.24 ([3]; 60° - 10 days): 0.02 | Related substance at relative retention time 0.69 ([3]; 60° - 10 days): 0.26 | Related substance at relative retention time 0.88 ([3]; 60° - 10 days): 0.03 | Related substance at relative retention time 1.24 ([3]; 60° - 10 days): 0.11 | Related substance at relative retention time 1.30 ([3]; 60° - 10 days): 0.17 | Related substance at relative retention time 1.81 ([3]; 60° - 10 days): 0.05 | Related substance at relative retention time 1.89 ([3]; 60° - 10 days): 0.05 | Total impurity ([3]; 60° - 10 days): 0.69 | Related substance at relative retention time 0.24 ([3]; 92.5% RH - 10 days): 0.02 | Related substance at relative retention time 0.69 ([3]; 92.5% RH - 10 days): 0.04 | Related substance at relative retention time 0.88 ([3]; 92.5% RH - 10 days): 0.02 | Related substance at relative retention time 1.24 ([3]; 92.5% RH - 10 days): 0.12 | Related substance at relative retention time 1.30 ([3]; 92.5% RH - 10 days): 0.17 | Total impurity ([3]; 92.5% RH - 10 days): 0.37 | Related substance at relative retention time 0.24 ([3]; Illumination - 10 days): 0.02 | Related substance at relative retention time 0.69 ([3]; Illumination - 10 days): 0.04 | Related substance at relative retention time 0.81 ([3]; Illumination - 10 days): 0.04 | Related substance at relative retention time 0.92 ([3]; Illumination - 10 days): 0.05 | Related substance at relative retention time 1.15 ([3]; Illumination - 10 days): 0.02 | Related substance at relative retention time 1.17 ([3]; Illumination - 10 days): 0.03 | Related substance at relative retention time 1.24 ([3]; Illumination - 10 days): 0.11 | Related substance at relative retention time 1.30 ([3]; Illumination - 10 days): 0.17 | Total impurity ([3]; Illumination - 10 days): 0.40 | Related substance at relative retention time 0.24 ([3]; Initial sample): 0.02 | Related substance at relative retention time 0.69 ([3]; Initial sample): 0.04 | Related substance at relative retention time 0.88 ([3]; Initial sample): 0.02 | Related substance at relative retention time 0.92 ([3]; Initial sample): 0.02 | Related substance at relative retention time 1.24 ([3]; Initial sample): 0.12 | Related substance at relative retention time 1.30 ([3]; Initial sample): 0.17 | Total impurity ([3]; Initial sample): 0.42 | Change of crystal form ([3]; acceleration (40° C./75% RH)): not changed | Change of crystal form ([3]; high humidity (92.5% RH)): not changed | Change of crystal form ([3]; high temperature (60° C.)): not changed | Change of crystal form ([3]; illumination): not changed
SMILES: COc1cc2ncnc(Nc3cccc(Cl)c3F)c2cc1N1CC2(CN(C)C2)OC1=O.Cc1ccc(S(=O)(=O)O)cc1 [crystal form C of the compound of formula (II)]
Formation of degradation impurity (conclusion) ([3]; illumination, high temperature, high humidity, acceleration): produces a degradation impurity only under the condition of high temperature

solubility at 2 h ([2]; 0.01 mol/L HCl, pH 2, simulated gastric fluid): 7440 µg/mL | solubility at 2 h [2, 4]: > 10000 µg/mL | solubility at 24 h [2, 4]: > 10000 µg/mL | solubility at 24 h ([2]; pH 5.5 buffer solution, pH 5.5, aqueous buffer): 1300 µg/mL | solubility at 2 h [2, 5]: 354 µg/mL | solubility at 24 h [2, 5]: 73 µg/mL | solubility at 2 h [2, 6]: 99 µg/mL | solubility at 24 h [2, 6]: 22 µg/mL | solubility at 24 h ([2]; water): 1140 µg/mL
SMILES: COc1cc2ncnc(Nc3cccc(Cl)c3F)c2cc1N1CC2(CN(C)C2)OC1=O.Cc1ccc(S(=O)(=O)O)cc1
